Experimental data reported in PubChem BioAssay AID743154 (The Scripps Research Institute Molecular Screening Center, 2013).
Activity calls are given as the source filed them. The rule behind the calls is not given here.

Biological target: methionyl-tRNA synthetase (Trypanosoma brucei brucei)
Test: inhibition of trypanosomal methionyl-tRNA synthetase – biochemical, fluorescence polarization, dose response, round 1, orthogonal assay for T. brucei MetRS inhibitor project, late-stage follow-up (AID 743154)

**Q.** Which IC50 does the source give for Cn1c(CCNC(=O)c2ccc(Cl)cc2)nc2ccccc21 here?
**A.** Its IC50 is > 39.5 µM (inactive).

**Q.** Which IC50 does the source give for CC(=O)N(CCc1ccccc1)C1CC(=O)N(c2ccc(Br)cc2)C1=O (stereo unspecified) here?
**A.** The IC50 was > 39.5 µM (inactive).

**Q.** With O=C(Cn1cc(C(=O)C2CC2)c2ccccc21)Nc1cccc(C(F)(F)F)c1 as the compound, how does the IC50 read?
**A.** Its IC50 is > 39.5 µM (inactive).

**Q.** With O=C(Cn1cc(C(=O)c2ccco2)c2ccccc21)Nc1cccc(C(F)(F)F)c1 as the compound, how does the IC50 read?
**A.** The IC50 was 2.92 µM.

**Q.** How did the IC50 turn out when COc1ccccc1NC(=O)CSc1nnc2c(n1)[nH]c1ccc(C)cc12 was run?
**A.** Its IC50 is “inactive”.

**Q.** How did the IC50 turn out when Cc1cccc2[nH]c(C3CCCN(C(=O)c4cccc5cccnc45)C3)nc12 (stereo unspecified) was run?
**A.** Its IC50 is > 39.5 µM (inactive).

**Q.** COCCc1nc2ccc(C(=O)NCCc3nc4ccc(OC)cc4[nH]3)cc2o1 was tested. Which IC50 did it give?
**A.** The IC50 was > 39.5 µM (inactive).

**Q.** With COc1ccccc1NC(=O)Cn1cc(C(=O)C(=O)N2CCOCC2)c2ccccc21 as the compound, how does the IC50 read?
**A.** Its IC50 is > 119 µM (inactive).

**Q.** With Cc1cccc(NC(=O)C2CC(=O)n3c(nc4ccccc43)N2)c1 (stereo unspecified) as the compound, how does the IC50 read?
**A.** Its IC50 is > 39.5 µM (inactive).

**Q.** How did the IC50 turn out when O=C(Cn1cc(C(=O)C(=O)N2CCCC2)c2ccccc21)Nc1ccccc1 was run?
**A.** The IC50 was > 119 µM (inactive).

**Q.** For CCN(CCc1nc2ccc(C)cc2[nH]1)C(=O)c1ccc2ncccc2c1, which IC50 is on record?
**A.** Its IC50 is > 119 µM (inactive).

**Q.** Which IC50 does the source give for O=C(NCCc1nc2ccccc2[nH]1)c1ccc(Cl)cc1 here?
**A.** The IC50 was 5.37 µM.

**Q.** With CCN(CC)C(=O)C(=O)c1cn(CC(=O)N2CCCc3ccccc32)c2ccccc12 as the compound, how does the IC50 read?
**A.** The IC50 was > 119 µM (inactive).

**Q.** O=C(C(=O)N1CCOCC1)c1cn(CC(=O)N2CCCc3ccccc32)c2ccccc12 was tested. Which IC50 did it give?
**A.** The IC50 was > 13.2 µM (inactive).

**Q.** Which IC50 does the source give for O=C(Cn1cc(C(=O)c2ccccc2)c2ccccc21)Nc1cccc(C(F)(F)F)c1 here?
**A.** Its IC50 is “inactive”.

**Q.** How did the IC50 turn out when O=C(NCCc1nc2ccccc2[nH]1)c1ccc(Cl)cc1Cl was run?
**A.** Its IC50 is 1.35 µM.

**Q.** For Cc1ccc2[nH]c3nc(SCC(=O)Nc4ccc(C(F)(F)F)cc4)nnc3c2c1, which IC50 is on record?
**A.** The IC50 was > 119 µM (inactive).

**Q.** With CCc1ccc2[nH]c3nc(SCC(=O)NCc4cccc(OC)c4)nnc3c2c1 as the compound, how does the IC50 read?
**A.** Its IC50 is > 39.5 µM (inactive).

**Q.** With COc1ccc(NC(=O)CSc2nnc3c4cc(C)ccc4n(C)c3n2)cc1 as the compound, how does the IC50 read?
**A.** The IC50 was > 119 µM (inactive).

**Q.** For Cc1cc2cc(C(=O)N3CCCC(c4nc5ccccc5[nH]4)C3)ccc2o1 (stereo unspecified), which IC50 is on record?
**A.** Its IC50 is > 39.5 µM (inactive).

**Q.** With CCN(CC)C(=O)C(=O)c1cn(CC(=O)Nc2cccc(OC)c2)c2ccccc12 as the compound, how does the IC50 read?
**A.** Its IC50 is 3.5 µM.

**Q.** For CCN(CC)C(=O)C(=O)c1cn(CC(=O)Nc2cccc(C(F)(F)F)c2)c2ccccc12, which IC50 is on record?
**A.** The IC50 was 0.167 µM.

**Q.** With O=C(Cn1cc(C(=O)COc2ccccc2)c2ccccc21)Nc1cccc(C(F)(F)F)c1 as the compound, how does the IC50 read?
**A.** Its IC50 is > 39.5 µM (inactive).

**Q.** How did the IC50 turn out when COc1ccc(CCN(C(=O)c2cccc(F)c2)C2CC(=O)N(c3ccc(Br)cc3)C2=O)cc1 (stereo unspecified) was run?
**A.** The IC50 was > 119 µM (inactive).

**Q.** Which IC50 does the source give for O=C(NCCc1nc2ccccc2[nH]1)c1ccc(Cl)c(Cl)c1 here?
**A.** The IC50 was 0.901 µM.

**Q.** Which IC50 does the source give for O=C(Cn1cc(C(=O)C(=O)N2CCOCC2)c2ccccc21)NCC1CCCO1 (stereo unspecified) here?
**A.** Its IC50 is > 119 µM (inactive).

**Q.** With CCCCn1c(CCNC(=O)c2ccc(F)cc2)nc2ccccc21 as the compound, how does the IC50 read?
**A.** The IC50 was > 39.5 µM (inactive).

**Q.** Cc1cccc2[nH]c(CCN(C)C(=O)c3cccc(C4CCNC4)c3)nc12 (stereo unspecified) was tested. Which IC50 did it give?
**A.** Its IC50 is > 119 µM (inactive).

**Q.** Which IC50 does the source give for COc1ccc(CCN(C(=S)Nc2ccccc2)C2CC(=O)N(c3ccc(Cl)cc3)C2=O)cc1 (stereo unspecified) here?
**A.** Its IC50 is 0.676 µM.

**Q.** How did the IC50 turn out when CCC(=O)c1cn(CC(=O)Nc2cccc(C(F)(F)F)c2)c2ccccc12 was run?
**A.** Its IC50 is > 39.5 µM (inactive).

**Q.** How did the IC50 turn out when O=C(Nc1ccc(F)c(Cl)c1)C1CC(=O)n2c(nc3ccccc32)N1 (stereo unspecified) was run?
**A.** Its IC50 is 1.77 µM.

**Q.** Cc1ccc(C(=O)NCCc2nc3ccccc3[nH]2)cc1[N+](=O)[O-] was tested. Which IC50 did it give?
**A.** Its IC50 is 3.55 µM.

**Q.** How did the IC50 turn out when CCN(CC)C(=O)C(=O)c1cn(CC(=O)N(CC)c2ccccc2)c2ccccc12 was run?
**A.** The IC50 was > 39.5 µM (inactive).

**Q.** How did the IC50 turn out when O=C(CSc1nnc2c(n1)[nH]c1ccc(Br)cc12)NCc1ccccc1 was run?
**A.** Its IC50 is 0.666 µM.

**Q.** With COc1ccc(NC(=O)C2CC(=O)n3c(nc4ccccc43)N2)cc1 (stereo unspecified) as the compound, how does the IC50 read?
**A.** Its IC50 is > 119 µM (inactive).

**Q.** With CC(C)c1nc2ccc(C(=O)N(C)CCc3nc4ccc(F)cc4[nH]3)cc2o1 as the compound, how does the IC50 read?
**A.** The IC50 was > 119 µM (inactive).

**Q.** CC1Cc2ccccc2N1C(=O)Cn1cc(C(=O)C(=O)N2CCOCC2)c2ccccc21 (stereo unspecified) was tested. Which IC50 did it give?
**A.** The IC50 was > 119 µM (inactive).

**Q.** O=C(CSC1CC(=O)N(c2cccc(Cl)c2)C1=O)Nc1ccc(Br)cc1 (stereo unspecified) was tested. Which IC50 did it give?
**A.** Its IC50 is “inactive”.

**Q.** Which IC50 does the source give for CC(=O)c1cn(CC(=O)Nc2cccc(C(F)(F)F)c2)c2ccccc12 here?
**A.** Its IC50 is > 39.5 µM (inactive).

**Q.** How did the IC50 turn out when CC(=O)N(CCc1ccccc1)C1CC(=O)N(c2ccc(Cl)cc2)C1=O (stereo unspecified) was run?
**A.** Its IC50 is > 39.5 µM (inactive).

**Q.** How did the IC50 turn out when Cc1cccc(C(=O)NCCc2nc3ccccc3n2CCOc2ccccc2)c1 was run?
**A.** Its IC50 is > 39.5 µM (inactive).

**Q.** Which IC50 does the source give for CNC(=S)N(CCc1ccccc1)C1CC(=O)N(c2ccc(Br)cc2)C1=O (stereo unspecified) here?
**A.** Its IC50 is 0.326 µM.

**Q.** For CCc1ccc2c(c1)c1nnc(SCC(=O)Nc3ccc4c(c3)OCO4)nc1n2C, which IC50 is on record?
**A.** Its IC50 is > 119 µM (inactive).

**Q.** How did the IC50 turn out when CCN(C(=O)Cn1cc(C(=O)C(=O)N2CCOCC2)c2ccccc21)c1ccccc1 was run?
**A.** Its IC50 is > 119 µM (inactive).

**Q.** CCN(CC)C(=O)C(=O)c1cn(CC(=O)Nc2ccccc2OC)c2ccccc12 was tested. Which IC50 did it give?
**A.** The IC50 was > 119 µM (inactive).

**Q.** How did the IC50 turn out when O=C(Cn1cc(C(=O)C(=O)N2CCOCC2)c2ccccc21)NCc1ccccc1 was run?
**A.** Its IC50 is > 119 µM (inactive).

**Q.** O=C(NCCc1nc2ccccc2[nH]1)c1c(F)cccc1F was tested. Which IC50 did it give?
**A.** The IC50 was > 119 µM (inactive).

**Q.** How did the IC50 turn out when COc1cccc(NC(=O)C2CC(=O)n3c(nc4ccccc43)N2)c1 (stereo unspecified) was run?
**A.** The IC50 was > 13.2 µM (inactive).

**Q.** With O=C1CC(NCCc2ccccc2)C(=O)N1c1ccc(Br)cc1 (stereo unspecified) as the compound, how does the IC50 read?
**A.** Its IC50 is > 119 µM (inactive).

**Q.** With Cc1ccc(CNC(=O)CSc2nnc3c(n2)[nH]c2ccc(C)cc23)cc1 as the compound, how does the IC50 read?
**A.** Its IC50 is “inactive”.

**Q.** For Cc1ccc(C(=O)NCCc2nc3ccccc3[nH]2)cc1C, which IC50 is on record?
**A.** Its IC50 is > 13.2 µM (inactive).
